9 molecules from patent publication US8044028B2, “Oligopeptides and their use in cosmetics” (Cognis France S.A.S., priority 2004, dated 2011) can be followed below.

Assay [1] concerns human keratinocytes. The assay is described as follows: Effects on the growth of human primary keratinocytes (cellular DNA content, ethidium bromide fluorescence). Format: cell-based. The following applies: for DNA after culture for 4-5 days: % based on control (standard medium without additives = 100), average of 3 assays in triplicate; for growth of human keratinocytes (result in words): keratinocytes cultivated from biopsies of adult subjects, activity still detected after 5 days without changing medium; for DNA after culture for 3 days: % based on control = 100. As to the method:
The aim of this test was to analyse the revitalizing and regenerating activities of oligpopeptides according to the invention on human keratinocyte cultures in vitro.
Human keratinocytes were obtained by trypsinization of skin biopsies. They were incubated in standard medium for cell cultures with foetal calf serum (FCS) and growth factors (EGF 10 ng/ml). After cultivation for 2 days at 37° C. and a CO2 content of 5%, the medium was replaced by standard medium with varying concentrations of peptides. […] The fluorescence was determined using a fluorimeter (excitation at 538 nm and emission at 590 nm). The foetal calf serum forms a positive control because it comprises many growth factors, such as, for example, IGF (insulin-like growth factor) and PDGF (platelet derived growth factor).
The results are shown in Table 1 and 2 as the average value from 3 assays in triplicate in % based on a control in which the standard medium comprised no additives.

In assay [2] the test system is syndecan-1. The assay is described as follows: Stimulation of the synthesis of syndecan-1 on human keratinocytes (immunocytochemistry, image analysis). The following applies: keratinocyte culture, biopsies of adult subjects. Format: cell-based. The procedure:
Monoclonal antibody anti-syndecan-1 and secondary antibody FITC conjugated were obtained from TEBU, Le Perray en Yvelines and BIO-RAD, Marnes-la-Coquette; KGF (Keratinocyte Growth Factor) (positive control) was obtained from SIGMA, L′Isle d'Abeau Chesnes.
Human keratinocytes were seeded in DMEM standard medium for 2 days at 37° C., CO2=5%. Then, N-Acetyl-Pro-Pro-Tyr-Leu (Seq. ID No. 375) or positive control KGF are introduced and after 5 days of incubation at 37° C., CO2=5%, the synthesis of syndecan-1 was evaluated on glass slides by immunocytochemistry. Quantification of the staining was carried out by image analysis.
The results are shown in table 3 as the mean of the sum±SEM of the product of number of pixels by green detected values (arbitrary unit).

No end group written: not given here. *: point of attachment. Palmitoyl = CCCCCCCCCCCCCCCC(=O)*

Consider Tyr-Leu-Pro-Arg-Pro [Example 6], for which the “DNA after culture for 4-5 days” value is 110 +/− 6% in assay [1] (0.001 % (w/v) peptide) and 146 +/− 24% in assay [1] (0.003 % (w/v) peptide). The “growth of human keratinocytes (result in words)” value (“growth of human keratinocytes” below) in assay [1] is reported as “stimulate the growth of human keratinocytes”.
As for “Arg-Arg-Arg-Pro-Arg (RRRPR; peptide derived from cathelicidin PR-39) [Example 2, R1=H, R2=OH]”, the “DNA after culture for 4-5 days” value was 119 +/− 6% in assay [1] (0.001 % (w/v) peptide) and 126 +/− 8% in assay [1] (0.003 % (w/v) peptide). Besides, the “growth of human keratinocytes” value in assay [1] was “stimulate the growth of human keratinocytes”.
Take “N-Palmitoyl-Pro-Pro-Tyr-Leu (Palmitoyl-PPYL) [Example 7, [AA] is Pro-Pro-Tyr-Leu, R1 is Palmitoyl and R2 is OH]”: the “DNA after culture for 3 days” value in assay [1] (0.00005 % (w/v) peptide) is 136 +/− 13%; in assay [1] (0.00015 % (w/v) peptide), 135 +/− 8%.
With “N-Acetyl-Pro-Pro-Tyr-Leu (Ac-PPYL) [[AA] is Pro-Pro-Tyr-Leu, R1 is Acetyl, and R2 is OH]”, in assay [2], the “syndecan-1 expression / synthesis in human keratinocytes (result in words)” value is listed as “stimulates the synthesis of syndecan-1”.
For RRRPRPPYLPRPRPP [Example 1], the “DNA after culture for 4-5 days” value in assay [1] (0.001 % (w/v) peptide) is listed as 124 +/− 15%; in assay [1] (0.003 % (w/v) peptide), 131 +/− 11%. In assay [1], the “growth of human keratinocytes” value is given as “stimulate the growth of human keratinocytes”.
For “Pro-Pro-Tyr-Leu (PPYL; peptide derived from cathelicidin PR-39) [Example 4, R1=H, R2=OH]” the same measures were 150 +/− 26%, 166 +/− 7% and “stimulate the growth of human keratinocytes”.
For “Arg-Pro-Pro-Tyr-Leu (RPPYL; peptide derived from cathelicidin PR-39) [Example 3, R1=H, R2=OH]” the same measures were 97 +/− 1%, 118 +/− 10% and “stimulate the growth of human keratinocytes”.
In the case of “Pro-Tyr-Leu-Pro-Arg (PYLPR; peptide derived from cathelicidin PR-39) [Example 5, R1=H, R2=OH]”, the “DNA after culture for 4-5 days” value is given as 118 +/− 3% in assay [1] (0.001 % (w/v) peptide) and 112 +/− 5% in assay [1] (0.003 % (w/v) peptide). In assay [1], the “growth of human keratinocytes” value was “stimulate the growth of human keratinocytes”.

B1: KGF: KGF (Keratinocyte Growth Factor) (positive control), obtained from SIGMA (protein, UniProt P21781 32-194, looked up)
Fibroblast growth factor 7: CNDMTPEQMATNVNCSSPERHTRSYDYMEGGDIRVRRLFCRTQWYLRIDKRGKVKGTQEMKNNYNIMEIRTVAVGIVAIKGVESEFYLAMNKEGKLYAKKECNEDCNFKELILENHYNTYASAKWTHNGGEMFVALNQKGIPVRGKKTKKEQKTAHFLPMAIT
Turning to B1, the “syndecan-1 expression / synthesis in human keratinocytes (result in words)” value in assay [2] is listed as “induced an increase of syndecan-1 expression”.
